The values below come from ChEMBL document CHEMBL3045826, “Synthesis of new derivatives of 2,2-dimethyl-2,3-dihydro-7-benzo[b]furanol with potential antimicrobial activity” (Med Chem Res, 2009).

Active and inactive are the calls of the source. No cut-off for these calls is given here.

Series [1] relates to Pseudomonas aeruginosa. Nature of the series: Antibacterial activity against Pseudomonas aeruginosa ATCC 15442 at 400 ug after 18 hr by disk diffusion method. Type of series: functional.
Series [2] concerns Candida albicans. The series is described as follows: Antifungal activity against Candida albicans ATCC 90028 at 400 ug after 24 to 48 hr by disk diffusion method. It is filed as functional. Background: In agar diffusion tests the substance spreads into inoculated agar from a disc or well.
The test system of another series is Proteus vulgaris. The series is described as follows: Antibacterial activity against Proteus vulgaris NCTC 4635 at 400 ug after 18 hr by disk diffusion method. Type of series: functional.
Another series concerns Enterococcus hirae. The series is described as follows: Antibacterial activity against Enterococcus hirae ATCC 10541 at 400 ug after 18 hr by disk diffusion method. Type of series: functional.
Series [3] deals with Human immunodeficiency virus 1. The series is described as follows: Antiviral activity against Human immunodeficiency virus 1 infected human MT4 cells assessed as inhibition of virus-induced cytopathogenicity after 4 days by MTT assay. It is filed as functional, organism-based. Particulars: Human immunodeficiency virus 1, MT4, 96 h. On the technique in general: Damage to the host cells serves as the signal in cytopathic effect assays.

Series [4] has as its system Staphylococcus aureus. The series is described as follows: Antibacterial activity against Staphylococcus aureus ATCC 6538P at 400 ug after 18 hr by disk diffusion method. Type of series: functional.
The test system of a further series is Bacillus subtilis. The series is described as follows: Antibacterial activity against Bacillus subtilis ATCC 6633 at 400 ug after 18 hr by disk diffusion method. It is filed as functional.
In series [5] the test system is Escherichia coli. The series is described as follows: Antibacterial activity against Escherichia coli ATCC 10538 at 400 ug after 18 hr by disk diffusion method. Type of series: functional.
Series [6] has as its system Staphylococcus aureus. The series is described as follows: Antibacterial activity against Staphylococcus aureus ATCC 29213 at 400 ug after 18 hr by disk diffusion method. It is filed as functional.
The test system of series [7] is Bordetella bronchiseptica. Nature of the series: Antibacterial activity against Bordetella bronchiseptica ATCC 461 at 400 ug after 18 hr by disk diffusion method. It is filed as functional.
Series [8] concerns Escherichia coli. The series is described as follows: Antibacterial activity against Escherichia coli NCTC 8196 at 400 ug after 18 hr by disk diffusion method. It is filed as functional.
The subject of series [9] is Escherichia coli. Nature of the series: Antibacterial activity against Escherichia coli ATCC 25922 at 400 ug after 18 hr by disk diffusion method. Type of series: functional.
The test system of another series is Candida parapsilosis. Nature of the series: Antifungal activity against Candida parapsilosis ATCC 22019 at 400 ug after 24 to 48 hr by disk diffusion method. It is filed as functional.
Series [10] deals with Staphylococcus aureus. The series is described as follows: Antibacterial activity against Staphylococcus aureus ATCC 25923 at 400 ug after 18 hr by disk diffusion method. Type of series: functional.
The subject of series [11] is Pseudomonas aeruginosa. The series is described as follows: Antibacterial activity against Pseudomonas aeruginosa NCTC 6749 at 400 ug after 18 hr by disk diffusion method. Type of series: functional, organism-based.
In series [12] the test system is Candida albicans. The series is described as follows: Antifungal activity against Candida albicans ATCC 10231 at 400 ug after 24 to 48 hr by disk diffusion method. Type of series: functional.
A short description of series [13]: Cytotoxicity against Homo sapiens (human) MT4 cells after 96 hr by MTT assay. It is filed as cell-based.
For series [14], the system named is Staphylococcus aureus. The series is described as follows: Antibacterial activity against Staphylococcus aureus NCTC 4163 at 400 ug after 18 hr by disk diffusion method. Type of series: functional.

As to `CC1(C)Cc2cccc(O)c2O1`, the “diameter of the inhibition zone (DIZ)” value with Pseudomonas aeruginosa [1], with Candida albicans [2], with Proteus vulgaris, in the series with Enterococcus hirae, with Staphylococcus aureus [4] and with Bacillus subtilis was “inactive” in each case. Moreover, the “diameter of the inhibition zone (DIZ)” value (with Escherichia coli [5]; in the series with Staphylococcus aureus [6]; in series [7]; in the series on Escherichia coli [8]; in the series with Escherichia coli [9]; in the series on Candida parapsilosis) was “inactive” throughout. Besides, the “diameter of the inhibition zone (DIZ)” value with Staphylococcus aureus [10], in the series with Pseudomonas aeruginosa [11], with Candida albicans [12] and with Staphylococcus aureus [14] was “inactive” each time. The EC50 in series [3] is over 100 µM. Further, half-maximal cytotoxicity in series [13] (CC50 at 96 h) was put at 100 µM.

With `CC1(C)Cc2c(Br)c(Br)c(Br)c(OCC(O)CN3CCN(c4ccccc4)CC3)c2O1` (stereo unspecified), the EC50 in series [3] was over 31 µM. The CC50 at 96 h in [13] is 31 µM.

With `CC1(C)Cc2c(Br)c(Br)c(Br)c(OCC(O)CN3CCN(c4ccc(F)cc4)CC3)c2O1` (stereo unspecified), the “diameter of the inhibition zone (DIZ)” value in the series with Pseudomonas aeruginosa [1], with Candida albicans [2], in the series with Proteus vulgaris, in the series on Enterococcus hirae, with Staphylococcus aureus [4] and with Bacillus subtilis was “inactive” in each case. The “diameter of the inhibition zone (DIZ)” value (with Escherichia coli [5]; in the series with Staphylococcus aureus [6]; in series [7]; in the series on Escherichia coli [8]; with Escherichia coli [9]; in the series on Candida parapsilosis) was “inactive” throughout. Besides, the “diameter of the inhibition zone (DIZ)” value in the series on Staphylococcus aureus [10], in the series on Pseudomonas aeruginosa [11], with Candida albicans [12] and in the series with Staphylococcus aureus [14] was “inactive” each time.

As usually defined, the EC50 is the concentration that produces a half-maximal response. Broadly, the CC50 is the concentration giving 50% cytotoxicity.
